Measured values taken from patent US20230201311A1, “COMPOSITIONS AND METHODS FOR TREATING NON-ALCOHOLIC STEATOHEPATITIS (NASH)” (SHANGHAI BENEMAE PHARMACEUTICAL CORPORATION, priority 2020, published 2023).

Key:
[1] = mouse, in vivo, sc
Experimental: Mice (n=4 per time point) were randomized into different groups by body weight on the day before the study. Mice were fasted overnight before dosing. […] Samples were collected at the time intervals shown in Table 1, where about 60 μL blood was taken into EDTA-coated tubes (pre-added 2.5 μL DPP-4 inhibitor, and 2.5 μL protease inhibitor). The plasma was separated on a pre-cooled centrifuge and then immediately frozen in dry ice. The samples were stored at −80° C. till assay.

HFD-NASH mice [2] = experiment: Pharmacodynamics study of Beinaglutide in HFD-NASH mice (Example 1, 4 weeks); type: in vivo
Experimental: HFD-NASH model development Animals were group-housed in standard cages at 22° C. in a 12:12-h light-dark cycle. Ob/ob mice were allowed ad libitum access to a diet enriched in fat (40% kcal), fructose (20% by weight), and cholesterol (2% by weight) (Research Diets, Inc., #D09100310). Over 9 weeks feeding, the mice (HFD-NASH) were developed with nonalcoholic fatty liver disease (steatosis, steatohepatitis with fibrosis), as assessed by biochemical methods (e.g., ALT levels).^1 ^1Santhekadur P K, Kumar D P, Sanyal AszJ. Preclinical models of non-alcoholic fatty liver disease. J Hepatol. 2018 February; 68(2):230-237; 2) Clapper J R. Hendricks M D, Gu G. at al. Diet-Induced mouse model of fatty liver disease and nonalcoholic steatohepatitis reflecting clinical disease progression and methods of assessment. Am J Physiol Gastrointest Liver Physiol 305: G483-G495. 2013.
After 9 weeks diet-induction, HFD-NASH mice were randomized into different groups by body weight. Body weight and diet were measured every day. At termination, blood was collected by cardiac puncture after animal's euthanasia by CO2. Liver were harvested and weighted. Right medial and/or left lateral lobes of the liver were excised. One part of liver was frozen for liver triglyceride measurement. One part was frozen for protein, RNA level qualification, like collagen 1 alpha 1 (Col1a1). One part was paraffin embedded. Hematoxylin and eosin (H&E) were used for morphological analysis. Picrosirius red stains was used for assessment of hepatic fibrosis. Histopathological analysis was performed by a pathologist blinded to the study. The remaining liver tissue was kept at −80° C. till analysis. Plasma levels of ALT, AST, TG, and total cholesterol (TC) were measured by bioanalyzer or kits.
Oral glucose tolerance test (OGTT) was performed at day 30 and was a test to diagnose type 2 diabetes (FIG. 4B).
Homeostatic Model Assessment of Insulin Resistance (HOMA-IR) is a calculation marker for insulin resistance which was calculated by formula: Glucose (mM)×Insulin […]/22.5 (FIG. 4C). *P<0.05, […] vs vehicle group by student t test.

HFD-NASH mice [3] = experiment: Therapeutic effects of Beinaglutide on HFD induced NASH model in ob/ob mice (Example 2, 11 weeks); type: in vivo; conditions: for percentage of body weight changes from baselines: Day 78 (11 weeks); for plasma ALT level: FIG. 16B
Excerpt: Animal grouping and experiment process: A total of 70 male ob/ob mice (6 weeks old) were fed with a chow diet after transferred to SPF animal room and acclimatized for 1 week. The feed was then switched to HFD diet (D09100310, fat (40 Kcal %), fructose (20 Kcal %) and cholesterol (2%), also named GAN (Gubra Amylin NASH) diet, Research Diets, Inc., USA) and maintained for 6 weeks. Inversed artificial circadian rhythms lighting were adopted during this period and subsequent drug administration period.
Plasma samples were collected for the measurement of ALT and mouse body weight data were measured at week 6. Animals were then randomly allocated into 4 groups (12 animals/group) based on body weight (the first weight index) and plasma ALT level (the second weight index). Drug and vehicle administration were started from week 7 since modeling start and mice were maintained on HFD diet with inversed artificial circadian rhythms lighting.
Data recording: Appearance and behavior of each mouse were observed after administration. All abnormal appearance, status and behaviors were recorded. In the period of HFD model development, body weight was measured once weekly from week 1 to week 6. Then body weight and food consumption were measured twice weekly since compound dosing start (week 7). The food consumption was calculated by the diet consumption of each cage of mice within 8 hours per day, the average food consumption per group was calculated. […]
Blood and tissue sampling: At the end of the in vivo study, all mice were euthanized via carbon dioxide (CO2) asphyxia after 11.5 hours fasting. Blood samples were collected via cardiac puncturing, one aliquot of each blood sample was collected into a tube without anti-coagulant for serum preparation. Serum was obtained by centrifugation at 3000 rpm for 10 minutes at 4° C. and then stored in a −80° C. refrigerator before being used for the measurement of ALT, AST, total bilirubin (TBIL), TC, TG and LDL-c. The other aliquot of each blood sample was collected into a tube with EDTA-K anti-coagulant for plasma preparation. Plasma samples were obtained by centrifugation at 4000×g for 10 minutes at 4° C. and then stored in a −80° C. refrigerator.
After the animal was sacrificed, the body weight and liver weight were measured, and four lobes of each liver were collected. The right middle lobe of each liver was collected, cut into two sections, put into two SNAP frozen tubes and kept at −80° C. before testing. One section of the liver tissue was used for mRNA expression analysis of Tgfb1, Col1a1 and Acta2; and the other section of the liver tissue was used for the measurement of TC and TG contents. The left middle lobe of each liver was collected, store at −80° C. for future use. The left lateral lobe of each liver was collected, cut into two sections and put into two tubes. One section was used for optimal cutting temperature (OCT) embedding, frozen sectioning and oil red staining for steatosis examination, and for calculation of percentage of fat deposition area. The other section was fixed with 10% neutral formalin solution and processed into formalin fixed paraffin-embedded (FFPE) block for H&E, Sirius red or α-SMA IHC staining respectively. The right lateral lobe of each liver was collected and fixed in 10% neutral formalin for future use.
Serum biochemistry analysis: The serum samples were taken out from −80° C. refrigerator and restored to room temperature. 150 μl of each serum sample was pipetted out for the analysis of ALT, AST, TBIL, TC, TG and LDL-c with automatic biochemical analyzer (HITACHI 7180).
qPCR analysis: The right middle lobe of each liver tissue was cut into small pieces, and 30-50 mg of liver tissue was weighed and transferred into a Lysing Matrix D tube, then 1 ml of TRIzol Reagent was added into Lysing Matrix D containing tissue immediately. […]

[4] = all 3 doses (0.6, 1.2, 2.4 mg/kg), about 11 weeks

CC[C@H](C)[C@H](NC(=O)[C@H](Cc1ccccc1)NC(=O)[C@H](CCC(=O)O)NC(=O)[C@H](CCCCN)NC(=O)[C@H](C)NC(=O)[C@H](C)NC(=O)[C@H](CCC(N)=O)NC(=O)CNC(=O)[C@H](CCC(=O)O)NC(=O)[C@H](CC(C)C)NC(=O)[C@H](Cc1ccc(O)cc1)NC(=O)[C@H](CO)NC(=O)[C@H](CO)NC(=O)[C@@H](NC(=O)[C@H](CC(=O)O)NC(=O)[C@H](CO)NC(=O)[C@@H](NC(=O)[C@H](Cc1ccccc1)NC(=O)[C@@H](NC(=O)CNC(=O)[C@H](CCC(=O)O)NC(=O)[C@H](C)NC(=O)[C@@H](N)Cc1cnc[nH]1)[C@@H](C)O)[C@@H](C)O)C(C)C)C(=O)N[C@@H](C)C(=O)N[C@@H](Cc1c[nH]c2ccccc12)C(=O)N[C@@H](CC(C)C)C(=O)N[C@H](C(=O)N[C@@H](CCCCN)C(=O)NCC(=O)N[C@@H](CCCNC(=N)N)C(=O)O)C(C)C [Beinaglutide]
difference of pharmacokinetics between C57BL/6J mice and HFD-NASH mice [1]: No significant difference | Body weight (HFD-NASH mice [2]; 2.4 mg/kg s.c. three times per day, 4 weeks, vs control group, FIG. 4A): lower body weight | liver weight (HFD-NASH mice [2]; 2.4 mg/kg s.c. three times per day, 4 weeks, vs vehicle, FIG. 2A): significantly reduced | liver triglyceride (TG) content (HFD-NASH mice [2]; 2.4 mg/kg s.c. three times per day, 4 weeks, vs vehicle, FIG. 2B): significantly reduced | plasma alanine aminotransferase (ALT) (HFD-NASH mice [2]; 2.4 mg/kg s.c. three times per day, 4 weeks, vs vehicle, FIG. 2C): significantly reduced | plasma aspartate aminotransferase (AST) (HFD-NASH mice [2]; 2.4 mg/kg s.c. three times per day, 4 weeks, vs vehicle, FIG. 2D): significantly reduced | macrovesicular and microvesicular steatosis (H&E-stained liver sections) (HFD-NASH mice [2]; 2.4 mg/kg s.c. three times per day, 4 weeks, vs vehicle, FIG. 2E): significantly reduced | Plasma TNF-α level (HFD-NASH mice [2]; 2.4 mg/kg s.c. three times per day, 4 weeks, vs vehicle, FIG. 3A): significantly reduced | Plasma IL-6 level (HFD-NASH mice [2]; 2.4 mg/kg s.c. three times per day, 4 weeks, vs vehicle, FIG. 3B): significantly reduced | Hepatic fibrosis (picrosirius red stained liver sections) (HFD-NASH mice [2]; 2.4 mg/kg s.c. three times per day, 4 weeks, vs vehicle, FIG. 3E): significantly reduced | Protein level of liver collagen 1 alpha 1 (western blotting, densitometry normalized to actin) (HFD-NASH mice [2]; 2.4 mg/kg s.c. three times per day, 4 weeks, vs vehicle, FIGS. 3C-3D): significantly lower | blood glucose in the oral glucose tolerance test (OGTT) (HFD-NASH mice [2]; 2.4 mg/kg, OGTT at day 30, vs control group, FIG. 4B): lower blood glucose | HOMA-IR (insulin resistance) (HFD-NASH mice [2]; 2.4 mg/kg, vs control group, FIG. 4C): lower insulin resistance | liver fibrosis scores (H&E staining) (HFD-NASH mice [3]; 0.6 mg/kg and 2.4 mg/kg, 11 weeks, vs control group, FIGS. 20A-20C): significantly (P<0.05) decreased | animal counts with severe pathological changes (steatosis, steatosis location, interlobular inflammation, liver fibrosis scores, liver fibrosis pattern) (HFD-NASH mice [3]; 0.6 mg/kg or 2.4 mg/kg, about 11 weeks): decreased | percentage of body weight changes from baselines (HFD-NASH mice [3]; 0.6 mg/kg t.i.d. s.c., first of three values given 'respectively'): −10.32% | liver TG contents (HFD-NASH mice [3]; 1.2 mg/kg and 2.4 mg/kg, 11 weeks, FIG. 18B): dramatically decreased | plasma ALT level (HFD-NASH mice [3]; 1.2 mg/kg and 2.4 mg/kg, after 6 weeks of treatment): significantly decreased | serum ALT (HFD-NASH mice [3]; 1.2 mg/kg and 2.4 mg/kg, after 11 weeks of treatment, vs control group, FIG. 17A): significantly (P<0.05, or P<0.01) decreased | serum TC levels (HFD-NASH mice [3]; 1.2 mg/kg and 2.4 mg/kg, after 11 weeks of treatment, vs control group, FIG. 17E): significantly (P<0.05, or P<0.01) decreased | serum AST level (HFD-NASH mice [3]; 1.2 mg/kg and 2.4 mg/kg, after 11 weeks, P>0.05, FIG. 17B): appeared to have decreased | percentage of body weight changes from baselines (HFD-NASH mice [3]; 1.2 mg/kg t.i.d. s.c., second of three values given 'respectively'): −10.12% | percentage of body weight changes from baselines (HFD-NASH mice [3]; 2.4 mg/kg t.i.d. s.c., third of three values given 'respectively'): −10.74% | area of liver macrovesicular steatosis (H&E staining) (HFD-NASH mice [3]; 2.4 mg/kg, 11 weeks, vs control group, FIG. 23B): significantly decreased | number of animals with significant fibrosis severity (liver fibrosis pattern scoring) (HFD-NASH mice [3]; 2.4 mg/kg, 11 weeks, FIG. 21C): reduced | animal number with severe pathology for steatosis, steatosis location, interlobular inflammation (HFD-NASH mice [3]; 2.4 mg/kg, 11 weeks, FIGS. 24A-24E): decreased | body weight increase (HFD-NASH mice [3]; Beinaglutide treatment groups (0.6, 1.2, 2.4 mg/kg t.i.d. s.c.), 11 weeks, vs control group, FIGS. 13A-13D): significantly reduced | 8-hour average food consumption (HFD-NASH mice [3]; Beinaglutide treatment groups (0.6, 1.2, 2.4 mg/kg), last 3 measurements (Day 68, 71, 75), vs control group, FIG. 14): significantly reduced | plasma ALT level (HFD-NASH mice [3]; Beinaglutide treatment groups vs control group, after 9 weeks treatment): no significant difference | serum TG levels (HFD-NASH mice [3]; Beinaglutide treatment groups, 11 weeks, P>0.05, FIG. 17D): no significant effect | liver TC content (HFD-NASH mice [3]; Beinaglutide treatment groups, 11 weeks, vs control group, FIG. 18A): No statistically significant effect | serum TBIL (HFD-NASH mice [3]; Beinaglutide treatment groups, 11 weeks, FIG. 17C): no significant effect | liver inflammation score (HFD-NASH mice [3]; [4]): appeared to have decreased | serum AST level (HFD-NASH mice [3]; [4]): appeared to have decreased | α-SMA positive areas (IHC staining) (HFD-NASH mice [3]; all Beinaglutide treatment groups, 11 weeks, FIGS. 22A-22B): decreased | relative mRNA expression level of Col1a1 in liver (qRT-PCR) (HFD-NASH mice [3]; each Beinaglutide dose group, 11 weeks, vs control group, FIG. 19A): significantly decreased | Tgfb1 gene expression level in liver (qRT-PCR) (HFD-NASH mice [3]; each Beinaglutide dose group, 11 weeks, vs control group, FIG. 19B): no statistically significant differences | Acta2 gene expression level in liver (qRT-PCR) (HFD-NASH mice [3]; each Beinaglutide dose group, 11 weeks, vs control group, FIG. 19C): no statistically significant differences | serum LDL-c level (HFD-NASH mice [3]; each Beinaglutide treatment group (0.6, 1.2, 2.4 mg/kg), 11 weeks, vs control group, FIG. 17F): significant (P<0.05, P<0.01, or even P<0.001) decrease | percentage of Sirius red staining positive area (HFD-NASH mice [3]; each Beinaglutide treatment group, 11 weeks, vs control group, FIGS. 21A-21C): appeared to have decreased | liver weight (HFD-NASH mice [3]; every Beinaglutide treatment group (0.6, 1.2, 2.4 mg/kg), 11 weeks, vs control group, FIG. 15A): significantly decreased | liver index (HFD-NASH mice [3]; every Beinaglutide treatment group (0.6, 1.2, 2.4 mg/kg), 11 weeks, vs control group, FIG. 15B): significantly decreased | NAS score (HFD-NASH mice [3]; every Beinaglutide treatment group, 11 weeks, FIG. 23A): appeared to have decreased
